Test [1] deals with mouse neuroblastoma Neuro2a cells. In words: Neurite formation in Neuro2A cells. The format is cell-based. The procedure: Mouse neuroblastoma Neuro2a cells were maintained in MEM-a media with 10% FBS and antibiotics at 37° C., in a humidified atmosphere containing 95% air and 5% CO2. Cells were seeded at 8.0·10^3 cells per 96-well culture plate and then were transfected using LIPOFECTAMINE PLUS™ reagent (Invitrogen,CA) according to the manufacturer's protocol, with 50 ng of ZFP, together with 20 ng of LacZ reporter plasmid. In vitro differentiation was carried out with or without retinoic acid (RA) (10 μM) respectively, and G418 (1 mg/ml) was treated 24 hours after transfection to reduce the number of untransfected cells. Cells were then cultured for 96 hours and then fixed, stained for β-galactosidase activity, and photographed. Among β-galactosidase-positive cells, cells were regarded as differentiated if the length of neurite extension was at least two times the diameter of the cell body.
To screen for ZFP-TFs that can induce neuronal differentiation, Neuro2A cells were transiently transfected with library plasmids and a reporter plasmid that includes the LacZ gene. LacZ expression was used to visualize the morphology of transfected cells. Because the differentiating cells grow slower than non-differentiating cells and the latter will dominate the cell population, we treated the cell culture with G418 24 hr after transfection to reduce the number of untransfected cells. After five days, cells were fixed and LacZ-stained. We then characterized the cells by their morphological characteristics. In particular, we identified cells with increased neurite length and thickness.

The test system of another test is yeast strain YPH499a. The test can be described thus: Ketoconazole resistance of yeast transformants. The format is cell-based, Saccharomyces cerevisiae. The conditions noted are these: 10^7 cells plated on synthetic media. The procedure:
To check the fungistatic response of the tester strain YPH499a to ketoconazole, 10^7 cells of the YPH499a strain were plated onto synthetic media containing different concentrations of the drug.
1×10^7 yeast cells containing plasmids from the 3-finger and 4-finger libraries were cultivated in synthetic liquid medium with 2% galactose for 3 hours at 30° C. to induce zinc finger protein expression and then were plated onto synthetic galactose agar plates containing 35 μM ketoconazole (ICN Biomedicals). After fours days of incubation at 30° C., about 120 clones formed colonies on galactose media containing 35 μM ketoconazole. These ketoconazole resistant yeast colonies were picked and streaked on fresh synthetic galactose agar plates containing 35 μM ketoconazole. 23 clones were randomly selected from the 120 resistant clones. For each of these 23 clones, the resistant phenotype was verified by plasmid rescue. […]
In one experiment, 5×10^4 cells from each transformant were serially diluted (10^−1, 10^−2, and 10^−3 fold) and spotted on galactose or glucose media supplemented without or with 35 μM ketoconazole. Growth of the cells was monitored after four days at 30° C. and compared to controls on the same plate. […]

For test [2], the system named is transcripts of human embryonic kidney 293 cells. In words: Transcript profiling of 293 cells expressing F121_p65. Format: cell-based. On the procedure:
DNA microarrays containing 7458 human EST clones were obtained from Genomictree (Korea). FlpTRex-293 cells stably expressing ZFP-TFs were grown with (+Dox) or without Dox) 1 μg/ml Doxycycline for 48 hours. Total RNA was prepared from each sample. RNA from the −Dox sample was used as a reference (Cy3), and +Dox as the experimental sample (Cy5). Microarray analysis was performed according to the manufacturer's protocols. Spots with sum of median less than 500 were colored red and not analyzed.
The zinc finger protein F121_p65 was expressed in human embryonic kidney 293 cells. […] F121_p65 increases transcription of insulin-like growth factor 2, among other genes.

Another test relates to SV40-SEAP reporter. In words: SV40-SEAP reporter in 293F cells. Format: cell-based, human. The conditions noted are these: for SV40-SEAP, average: Vector (HANLS) = 1. On the procedure:
(§1) Three days after transfection, medium was transferred to the new tubes and heated for 30 minutes at 65° C. to inactivate the endogenous alkaline phosphatase. 25 μl of medium was mixed with the same volume of 2×SEAP assay buffer (2 M Diethanolamine (pH 9.8) 10 ml, 1 M MgCl2 10 μl, 1 M homoarginine 200 μl, pNitro phenyl phosphate 44.52 mg). Absorbance at 405 nm was measured after the indicated incubation times at 37° C.
To investigate this point, an extensive screening had been carried out using the SEAP reporter under the control of CMV promoter (CMV-SEAP) in 293F cells. Two ZFPs, K44—11_D01 and K44—11_G12, that increase activity of the SEAP protein were isolated. These two ZFPs were further tested using two other reporter plasmids, SV40-SEAP and the luciferase reporter under the control of CMV promoter (CMV-Luc). […]. […] Thus, K44—11_G12 may be used increase the production of proteins generally in cells, e.g., eukaryotic cells.

For the next test, the system named is CMV-Luc reporter. The test can be described thus: CMV-Luc reporter in 293F cells. The format is cell-based, human. The conditions noted are these: for CMV-Luc, average: Vector (HANLS) = 1. On the procedure:
For the luciferase assay, 5 ng of both CMV-luciferase and pRL-SV40 plasmid were co-transfected with 50 ng of ZFP coding plasmids to 293 cells seeded in wells of a 96 well plate. After 3 days of incubation, cells were harvested and the luciferase assay was done by a Dual Luciferase reporter assay system (Promega) as recommended by the manufacturer.
(§2) To investigate this point, an extensive screening had been carried out using the SEAP reporter under the control of CMV promoter (CMV-SEAP) in 293F cells. Two ZFPs, K44—11_D01 and K44—11_G12, that increase activity of the SEAP protein were isolated. These two ZFPs were further tested using two other reporter plasmids, SV40-SEAP and the luciferase reporter under the control of CMV promoter (CMV-Luc). […] Thus, K44—11_G12 may be used increase the production of proteins generally in cells, e.g., eukaryotic cells.

The test system of a further test is CMV-SEAP reporter. In words: CMV-SEAP reporter in 293F cells. The conditions noted are these: for CMV-SEAP, average: Vector (HANLS) = 1. The format is cell-based, human. The procedure: as §1, §2
Another test relates to 293 cells. In words: Cell growth of transfected 293 cells (cell count confirming MTT assay). The format is cell-based, human. The conditions noted are these: for relative cell number, average: three days after transfection, relative to parental vector. On the procedure:
MTT assay is used to measure cell growth. Tetrazolium MTT reduced by metabolically active cells […] color indicates the number of viable cells. MTT assay was done using a MTT assay kit (Trevigen). The MTT assay was done at three days after transfection. Briefly, 10 μl of MTT solution was added directly to the culture medium and incubated for two hours in a CO2 incubator. Then, 100 μl of detergent solution from the MTT assay kit was added and incubated in the dark for two hours before measurement of absorbance at 570 nm was measured using a Power-Wave 340× (Bio-Tek Instrument).
To count cell numbers, 293 cells were seeded at 1.5·10^4 cells/well in a 24 well plate one day before transfection. Three days after transfection with 200 ng of ZFP-coding nucleic acid or control vector plasmids, cells were washed with PBS once and suspended in 30 ul of TE (10 mM Tris 1 mM EDTA, pH 8.0) buffer and counted by hematocytometery.
To confirm the MTT assay, the cell numbers were counted after transfection of K_D10 and K_F02 in 293 cells. The result was compared to the cell number of the well transfected with the parental vector, converted to relative percentages and shown in Table 13. […] The P values for K_D10 and K_F02 are 0.001 and 0.01, respectively. For sequence information, see FIGS. 18 and 19.
For orientation: Tetrazolium assays rely on reduction of a dye to a coloured formazan, in cell work by metabolically active cells.

Test [3] has as its system SV40-SEAP reporter (pSEAP2-control). The test can be described thus: SEAP assay, SV40-SEAP reporter in 293 cells. Format: cell-based, human. The procedure: Human embryonic kidney 293 cells were cultured with 100 μl of DMEM with 10% of FBS in a humidified atmosphere containing 95% air and 5% CO2 and seeded in wells of a 96 well plates 1 day ahead of transfection. The plasmids were isolated from individual colonies of each library separately and transfected into 293 cells LIPOFECTAMINE PLUS™ (Invitrogen) as recommended by the manufacturer. For MTT assay, 50 ng of plasmids containing zinc finger protein gene fused to the functional domains were transfected into cells cultured at 5·10^3 cells/well. For the SEAP assay, 10 ng of pSEAP2-control (Clontech) plasmid was co-transfected with 50 ng of plasmids containing zinc finger protein gene fused to the functional domains into cells cultured at 1·10^4 cells/well. The transfected cells were incubated at 37° C. for three days before assays.
as §1
We tested whether library nucleic acids could alter expression of a heterologous nucleic acid. SEAP (secretory alkaline phosphatase) was used as a reporter protein to test whether a ZFP can affect amount of foreign protein produced intracellularly.

This note sets out measurements from patent US7514257B2, “Zinc finger transcription factor differentiation proteins” (ToolGen, Inc., priority 2001, dated 2009).

Where “and” joins values, the source holds several entries; their conditions need not be identical. Equal values may be shown once.

As for `CC1=C(/C=C/C(C)=C/C=C/C(C)=C/C(=O)O)C(C)(C)CCC1` [RA, retinoic acid, reference compound], in test [1] (RA 10 uM), the “Percentage of neurite bearing cells” value worked out at 14.93 ± 7.69%.
In the case of `CC(=O)N1CCN(c2ccc(OCC3COC(Cn4ccnc4)(c4ccc(Cl)cc4Cl)O3)cc2)CC1` (stereo not drawn) [ketoconazole, Ketoconazole], the “ketoconazole concentration that inhibited growth of YPH499a cells” value with yeast strain YPH499a came to 35 µM.
As for “F121_p65: ZFP QSHT-RSHR-RDHT-p65 (SEQ ID NO:20)”, the “Norm ratio of medians (ROM)” value was 8.66 in test [2] (FK506-binding protein 8 (38 kD), ID N95418); 5.06 in test [2] (Fn14 for type I transmenmbrane protein, ID AI221536); 5.71 in test [2] (brain-specific protein p25 alpha, ID AA133959); 7.34 and 5.90 in test [2] (cadherin 13, H-cadherin (heart), ID R41787); 10.30 in test [2] (cellular retinoic acid-binding protein 2, ID AA598508); 5.27 in test [2] (cyclin D1 (PRAD1: parathyroid adenomatosis, ID AA487486)). Besides, the “Norm ratio of medians (ROM)” value in test [2] (cysteine-rich protein 2, ID AA485427) was 6.71; in test [2] (growth arrest and DNA-damage-inducible, ID AA404666), 5.55; in test [2] (insulin-like growth factor 2, ID H59614), 17.71 and 16.88; in test [2] (insulin-like growth factor 2, ID N54596) it was 14.40; in test [2] (jun B proto-oncogene, ID N94468), 11.61; in test [2] (ketohexokinase (fructokinase), ID T61256), 5.28. Besides, the “Norm ratio of medians (ROM)” value in test [2] (lymphocyte antigen 6 complex, locus H, ID AI929550) was 5.50; in test [2] (nuclear factor of activated T-cells, ID AA679278) it was 9.64; in test [2] (protein phosphatase 2, regulatory subunit, ID R59165), 9.89 and 8.60; in test [2] (protein tyrosine phosphatase, receptor, ID R45941) it was 16.45; in test [2] (putative gene product, ID H09111), 12.35; in test [2] (tumor necrosis factor (ligand) superfamily, ID AI347622), 6.15. The “Norm ratio of medians (ROM)” value is 5.27 in test [2] (unnamed (—), ID AA045731) and 6.46 in test [2] (zinc finger protein homologous to Zfp-36, ID R38383).
Take “K44_11_D01: ZFP QSHV-QSNI-QTHR1-CSNR1 with kid repression domain (SEQ ID NO:14)”: in the test with SV40-SEAP reporter, the “activation of SV40-SEAP (in words)” value is given as “showed activation of SV40-SEAP” and the “SV40-SEAP, average” value amounted to 3.66. Further, in the test with CMV-Luc reporter, the “activation of CMV-Luciferase (in words)” value is reported as “not the CMV-Luciferase” and the “CMV-Luc, average” value amounted to 0.87. Besides, in the test on CMV-SEAP reporter, the “increase of SEAP activity compared to parental plasmid (vector)” value was “approximately 3 fold” and the “CMV-SEAP, average” value turned out to be 3.49.
For the compound “K44_11_G12: ZFP QSHV-VSTR-RDNQ-QTHR1 with kid repression domain (SEQ ID NO:16)”, in the test with SV40-SEAP reporter, the “activation of SV40-SEAP” value is recorded as 2-3 fold and the “SV40-SEAP, average” value amounted to 2.14. In the test with CMV-Luc reporter, the “activation of CMV-luciferase” value is 2-3 fold and the “CMV-Luc, average” value is 2.75. In the test on CMV-SEAP reporter, the “increase of SEAP activity compared to parental plasmid (vector)” value is “approximately 3 fold” and the “CMV-SEAP, average” value worked out at 2.82.
As to “K_D10: ZFP QSHV-WSNR-WSNR-RDNQ with kid repression domain (SEQ ID NO:10)”, in the test on 293 cells, the “inhibition of cell growth compared to parental vector” value is on record as “approximately 3 fold” and the “relative cell number, average” value turned out to be 27.4%.
With “K_F02: ZFP DSAR2-RDKR-RDER1-QTHR1 with kid repression domain (SEQ ID NO:12)”, in the test on 293 cells, the “activation of cell growth compared to the control” value stood at 2.7 fold and the “relative cell number, average” value turned out to be 279.3%.
In the case of “Neuro1-p65: chimeric ZFP QSNR1-QSNK-CSNR1 with p65 activation domain (SEQ ID NO:2)”, the “Percentage of neurite bearing cells” value worked out at 42.39 ± 5.56% in test [1] (No RA) and 41.59 ± 6.46% in test [1] (RA 10 uM). Also, the neuritogenesis result in test [1] (cells treated with 10 μM RA) is on record as “marked acceleration of neuritogenesis”. Also, the “neuritogenesis / differentiation (length and thickness of neurites)” value in test [1] (without RA) is “most prominent effect on differentiation”.
Turning to “P_B08: ZFP QSNR1-DSNR-DSNR with p65 activation domain (SEQ ID NO:8)”, the “Absorbance (405 nm)” value in test [3] (SEAP reporter activity, three days after transfection) turned out to be 2.40. Further, the “SV40-SEAP reporter, average” value in test [3] (Vector (HANLS) = 1) turned out to be 16.51. In addition, in test [3] (retest), the “increase of SEAP activity compared to parental plasmid” value was “approximately 16 fold”.
